Where two headings read alike, the source gives them in different places. Where a SMILES comes first, the peptide text is derived from it.
Experiments:
HLA-A2 = biological target: T1, HLA-A2 (Homo sapiens, UniProt P04439, D140Y/D185E/D98H/E176V/E277Q/G131W/G231S/I119V/I121R/I166T/I218V/L300P/L318F/N151K/N90K/P208A/P217A/Q86G/Q94H/R138H/R169H/T345S); assay: T2 binding assay (HLA-A2 expression on T2 cells by flow cytometry)
T1 construct: host or cells: T2 cells (human T-B lymphoblast hybrid, TAP1/TAP2 deficient)

[1] = tested on: HLA-A2 positive human Ewing's sarcoma cell line which expresses XAGE-1 mRNA; assay: CTL lysis of human XAGE-1-expressing cancer cells by CTLs of immunized HLA-A2 transgenic mice; type: in vivo
Excerpt: (§1) FIG. 3. CTLs induced with peptide of the invention can lyse human cancer cell expressing XAGE-1. Spleen cells derived from HLA-A2 transgenic mice immunized with a peptide of the invention (SEQ ID NO:6), as the effector cells, were stimulated in vitro for two weeks and used for a CTL assay. C1R.AAD cells pulsed or unpulsed with a peptide of SEQ ID NO:6 and a human osteosarcoma cell line expressing XAGE-1 (SB, described in Liu et al, Can Research 60:4752-4755 (2000)) were used as target cells. “E:T Ratio” stands for “Effector:Target ratio,” as indicated on the axis.
(§2) Xage-1 14 peptide (50 nmol) was emulsified in incomplete Freund's adjuvant with 50 nmol of a helper epitope derived from HCV core128-140, 5 μg of IL-12, and 5 μg of GM-CSF. Transgenic A2 Kb mice were immunized s.c. with the emulsified peptide and given a booster shot at 2 weeks. […] A week after the second stimulation, cells were harvested and measured for cytotoxic activity. The cytotoxic activity was measured by 4-hr ^51Cr-release assay. The percentage of specific ^51Cr release was determined as follows: (experimental release−spontaneous release)/(maximum release−spontaneous release)×100. Maximum release was determined from supernatants of cells that were lysed by addition of 5% Triton X-100. Spontaneous release was determined from target cells incubated without added effector cells. […]

[2] = tested on: C1R.AAD cells pulsed or unpulsed with peptide; assay: CTL 51Cr-release assay, spleen cells of peptide-immunized HLA-A2 transgenic mice against peptide-pulsed or unpulsed targets; type: in vivo; details: spleen cells from immunized HLA-A2-transgenic mice
Excerpt: as §1, §2

[3] = T2 cells, overnight incubation with peptide and β2-microglobulin, read-out: binding affinity to HLA-A2 (F.I.50)
[4] = T2 binding assay, enhanced xage-1 14 peptides, read-out: Binding Affinity to HLA-A2 (FI50)

| SMILES | EC50 (HLA-A2; [3]) [µM] | EC50 (HLA-A2; [4]) [µM] | binding to HLA-A2 (in words) (HLA-A2; T2 binding assay) | also measured |
| --- | --- | --- | --- | --- |
| CSCC[C@H](NC(=O)[C@@H](NC(=O)[C@@H]1CCCN1C(=O)[C@H](CO)NC(=O)[C@H](CCCNC(=N)N)NC(=O)[C@@H]1CCCN1C(=O)[C@H](CO)NC(=O)[C@H](C)NC(=O)[C@@H](NC(=O)[C@@H](N)Cc1c[nH]cn1)[C@@H](C)O)C(C)C)C(=O)O [xage-1 57, HTASPRSPVM, reference compound] (H-HTASPRSPVM-OH) | > 50 |  |  |  |
| CC(C)[C@H](NC(=O)[C@@H]1CCCN1C(=O)[C@H](CO)NC(=O)[C@@H]1CCCN1C(=O)[C@H](C)NC(=O)[C@H](CO)NC(=O)[C@@H]1CCCN1C(=O)[C@H](Cc1ccccc1)NC(=O)[C@@H](NC(=O)CN)C(C)C)C(=O)O [xage-1 14, GVFPSAPSPV] (H-GVFPSAPSPV-OH; N-terminus and C-terminus assumed) | 0.7 to 0.8 |  | surprisingly stronger binding to HLA-A2 compared to other candidate peptides | killing of human XAGE-1-expressing cancer cells by CTLs (FIG. 3) ([1]; CTLs from HLA-A2 transgenic mice immunized with peptide, varying E:T ratio): killed human RAGE-1-expressing cancer cells in a dose dependent manner; lysis of human Ewing's sarcoma cells by CTLs ([1]; CTLs from mice immunized twice with peptide, restimulated in vitro): lysed the human Ewing's sarcoma cells; specific lytic activity against peptide-pulsed targets ([2]; stimulated twice in vitro, targets pulsed with xage-1 14): lysed target cells pulsed with peptide; lytic activity against target cells not pulsed with peptide ([2]; unpulsed targets): did not lyse target cells not pulsed with peptide |
| CSCC[C@H](NC(=O)[C@@H](NC(=O)CN)C(C)C)C(=O)N1CCC[C@H]1C(=O)N[C@@H](CO)C(=O)N[C@@H](C)C(=O)N1CCC[C@H]1C(=O)N[C@@H](CO)C(=O)N1CCC[C@H]1C(=O)N[C@H](C(=O)O)C(C)C [3M xage-1 14, GVMPSAPSPV] (H-GVMPSAPSPV-OH; N-terminus and C-terminus assumed) |  | 0.28 | particularly high binding affinity to HLA-A2 |  |
| CC[C@H](C)[C@H](NC(=O)[C@H](Cc1c[nH]c2ccccc12)NC(=O)[C@@H](NC(=O)[C@H](CCC(=O)O)NC(=O)[C@@H]1CCCN1C(=O)[C@@H](NC(=O)[C@H](CCCNC(=N)N)NC(=O)[C@@H](NC(=O)[C@H](C)N)[C@@H](C)O)C(C)C)C(C)C)C(=O)N[C@@H](CC(C)C)C(=O)O [xage-1 33, ATRVPEVWIL, reference compound] (H-ATRVPEVWIL-OH) | > 50 |  |  |  |
| CSCC[C@H](NC(=O)[C@H](CC(C)C)NC(=O)CN)C(=O)N1CCC[C@H]1C(=O)N[C@@H](CO)C(=O)N[C@@H](C)C(=O)N1CCC[C@H]1C(=O)N[C@@H](CO)C(=O)N1CCC[C@H]1C(=O)N[C@H](C(=O)O)C(C)C [2L3M xage-1 14, GLMPSAPSPV] (H-GLMPSAPSPV-OH; N-terminus and C-terminus assumed) |  | 0.62 | particularly high binding affinity to HLA-A2 |  |

The next lines start with results.

| EC50 (HLA-A2; [3]) [µM] | EC50 (HLA-A2; [4]) [µM] | SMILES | binding to HLA-A2 (in words) (HLA-A2; T2 binding assay) | also measured |
| --- | --- | --- | --- | --- |
|  | 1.86 | CC(C)C[C@H](NC(=O)CN)C(=O)N[C@@H](Cc1ccccc1)C(=O)N1CCC[C@H]1C(=O)N[C@@H](CO)C(=O)N[C@@H](C)C(=O)N1CCC[C@H]1C(=O)N[C@@H](CO)C(=O)N1CCC[C@H]1C(=O)N[C@H](C(=O)O)C(C)C [2L xage-1 14, GLFPSAPSPV] (H-GLFPSAPSPV-OH; N-terminus and C-terminus assumed) |  |  |
|  | 2.36 | CC(C)[C@H](NC(=O)[C@@H]1CCCN1C(=O)[C@H](CO)NC(=O)[C@@H]1CCCN1C(=O)[C@H](C)NC(=O)[C@H](CO)NC(=O)[C@@H]1CCCN1C(=O)[C@H](Cc1ccccc1)NC(=O)[C@@H](NC(=O)[C@@H](N)Cc1ccc(O)cc1)C(C)C)C(=O)O [1Y xage-1 14, YVFPSAPSPV] (H-YVFPSAPSPV-OH; N-terminus and C-terminus assumed) |  |  |
|  | 3.04 | CC(C)C[C@H](NC(=O)[C@@H](N)Cc1ccc(O)cc1)C(=O)N[C@@H](Cc1ccccc1)C(=O)N1CCC[C@H]1C(=O)N[C@@H](CO)C(=O)N[C@@H](C)C(=O)N1CCC[C@H]1C(=O)N[C@@H](CO)C(=O)N1CCC[C@H]1C(=O)N[C@H](C(=O)O)C(C)C [1Y2L xage-1 14, YLFPSAPSPV] (H-YLFPSAPSPV-OH; N-terminus and C-terminus assumed) |  |  |

— patent US20130171178A1, “Immunogenic Peptides of Xage-1” (THE GOVERNMENT OF THE UNITED STATES AS REPRESENTED BY THE …, priority 2003, published 2013)
